Laboratory results from patent US7129230B2, “Method and product for treating cancer in pets” (Nestec S.A., priority 2001, dated 2006).
Entries after “also recorded” stand apart in the source; their conditions may differ. Read-outs that look alike come from different tables or passages of the source.

What was measured:
SCC 2/88 cells = experiment: Growth of SCC 2/88 cells by fluorescence DNA concentration analysis; type: cell-based, canine; details: three-day treatment
From the text: Cell culture. […] Each experiment was run in triplicate.

[1] = system: involucrin in SCC 2/88 cells; experiment: Cell differentiation: involucrin by SDS-PAGE and Western blot in SCC 2/88 cells; type: cell-based, canine; details: post-confluent cells, up to 7 days; for involucrin expression (anti-involucrin reactive bands) compared to vehicle: 10^−7 M; for involucrin expression (anti-involucrin reactive bands): 10^−9 M
Procedure: Cell differentiation. Involucrin was extracted from cultured SCC 2/88 cells grown in 175 cm2 culture flasks (Becton Dickinson, Franklin Lakes, N.J.) for one week. Post confluent cells were treated with either vehicle, 1,25(OH)2D3, EB 1089, or analog V at concentrations 10^−7 M and 10^−9 M for up to 7 days. Cells were washed and released from the culture flask with phosphate buffered saline containing 20 mM EDTA. Cells were disrupted with a Branson sonifier (Branson Ultrasonic Corporation, Danbury, Conn.) at a setting of 6 for 3×30 seconds and centrifuged at 100,000 G for 30 minutes at 10° C. The supernatant (cytosol) was made 10% in glycerol and 62.5 mM in Tris-HCl (pH 6.8) and heated for 10 minutes at 100° C. The denatured proteins were removed by centrifugation at 15,000 G for 15 minutes. Involucrin in the supernatant was collected stored at −70° C. until Western blot analysis was performed.
Extracted proteins (20 μg) were separated by electrophoresis through 7.5 % sodium dodecyl sulfate (SDS)-polyacrylamide gel, and transferred to nitrocellulose membrane with use of a semi-dry transferred technique (Bio-Rad laboratories, Hercules, Calif.). The membrane was then blocked in blocking solution (10% dry milk, 0.05% Tween 20 in phosphate buffered saline) overnight at 4° C. The preblocked membrane was incubated in mouse monoclonal antibody against involucrin (Research Diagnotics Inc., Flanders, N.J.) 1:500 for an hour and extensively washed in PBS (pH 7.4) containing 0.05% Tween 20. The blot was then incubated in goat anti-mouse IgG (horseradish peroxidase) (Bio-Rad laboratories, Hercules, Calif.) 1:500 for an hour. After further washing in phosphate buffered saline containing 0.05% Tween 20, the blot was developed for 1 minute in the LumiGLO Chemiluminescent substrate (Kirkegaard and Perry laboratories, Gaithersburg, Md.), and then exposed to x-ray film for 1–5 seconds. After exposure, the membrane was stripped and incubated with mouse monoclonal anti-β-actin (Sigma, Saint Louis, Mo.) to normalize for protein loading. AlphaImager™ Alpha Innotech Corporation, San Leandro) measured the density of involucrin bands.

[2] = system: PTHrP production in SCC 2/88 cells; details: Merryman et al 1993, cited from earlier work
[3] = system: thyroid anaplastic carcinoma cell lines; details: four thyroid anaplastic carcinoma cell lines; cited from earlier work
[4] = system: PTHrP mRNA in SCC 2/88 cells; experiment: Northern blot analysis of PTHrP mRNA expression in SCC 2/88 cells; type: cell-based, canine
[5] = system: TGF-β mRNA in SCC 2/88 cells; experiment: Northern blot analysis of TGF-β mRNA expression in SCC 2/88 cells; type: cell-based, canine; details: 10^−7 M, 0, 3, 6, 12 and 24 hrs
[6] = system: human and rat liver cancer cell lines; details: cited from earlier work
[7] = system: human prostate cancer cell line; details: cited from earlier work
[8] = system: murine squamous cell carcinoma (SCC) tumor model; details: in vitro and in vivo; cited from earlier work
osteosarcoma cell lines = details: four canine osteosarcoma cell lines; cited from earlier work
[9] = system: PTHrP production in human squamous cell lines; details: cited from earlier work

| Compound | growth of SCC 2/88 cells (concentration of DNA) (SCC 2/88 cells; 10^−7 M) | growth of SCC 2/88 cells (concentration of DNA) (SCC 2/88 cells; 10^−9 M) | involucrin expression (anti-involucrin reactive bands) compared to vehicle [1] | involucrin expression (anti-involucrin reactive bands) [1] | PTHrP production in SCC 2/88 cells [2] | cell growth [3] | also measured |
| --- | --- | --- | --- | --- | --- | --- | --- |
| C=C1/C(=C\C=C2/CCC[C@]3(C)[C@@H]([C@H](C)/C=C/C=C/C(O)(CC)CC)CC[C@@H]23)C[C@@H](O)C[C@@H]1O [EB 1089, 22,24-diene-24a,26a,27a-trihomo-1α,25-dihydroxyvitamin D3] | inhibit cell proliferation; also recorded: significantly reduced the concentration of DNA; also recorded: significantly diminished cell growth | inhibits cell growth significantly; also recorded: significantly reduced the concentration of DNA; also recorded: reduced cell growth at a lower confidence level | more weakly defined than that of the vehicle-treated control; also recorded: diminished involucrin expression; also recorded: weak or substantially absent anti-involucrin reactive bands | diminished involucrin expression; also recorded: diminished levels of involucrin | promote PTHrP production | – | – |
| C=C1/C(=C\C=C2/CCC[C@]3(C)[C@@H]([C@H](C)OCCC(C)(C)O)CC[C@@H]23)C[C@@H](O)C[C@@H]1O [22-oxacalcitriol] | – | – | – | – | – | dose-dependent inhibition of cell growth in all four of the cell lines | – |
| TGF-β | – | – | – | – | – | – | increase in PTHrP mRNA compared to vehicle-treated control ([4]; TGF-β 1.5 ng/mL, 6, 12 and 24 hr): 5- to 20 fold; increase in PTHrP mRNA compared with vehicle-treated control ([4]; TGF-β, after 24 hr): 2- to 20 fold |
| C=C1/C(=C\C=C2/CCC[C@]3(C)[C@@H]([C@H](C)CCCC(C)(C)O)CC[C@@H]23)C[C@@H](O)C[C@@H]1O [1,25(OH)2D3] | inhibit cell proliferation; also recorded: significantly reduced the concentration of DNA | – | diminished involucrin expression | diminished involucrin expression | promote PTHrP production | diphasic cell growth in three of the four cell lines | TGF-β mRNA expression compared to vehicle-treated control [5]: did not differ significantly; PTHrP production in SCC 2/88 cells ([2]; listed as 1,25-(OH)2D3): stimulates production of parathyroid hormone-related protein; anti-proliferative activity [6]: anti-proliferative activity in some human and rat liver cancer cell lines; cell growth and differentiation [7]: inhibits cell growth and promotes differentiation in a dose-dependent manner; antitumor effects [8]: significant antitumor effects; alkaline phosphatase activity (osteosarcoma cell lines): increases alkaline phosphatase activity in one cell line; osteocalcin production (osteosarcoma cell lines): osteocalcin production in two lines; type I collagen production (osteosarcoma cell lines): type I collagen production in three lines; PTHrP production [9]: inhibits PTHrP production |
| C=C1C(=CC=C2CCCC3(C)C(C(C)CC#CC(C)(C)O)=CCC23)CC(O)CC1O (stereo not drawn) [analog V, 1,25-dihydroxy-16-ene-23-yne-vitamin D] | inhibit cell proliferation; also recorded: significantly reduced the concentration of DNA; also recorded: significantly diminished cell growth | no significant inhibition of cell growth | more weakly defined than that of the vehicle-treated control; also recorded: diminished involucrin expression; also recorded: weak or substantially absent anti-involucrin reactive bands | more intense than those of the other treated groups; also recorded: stronger anti-involucrin reactive band | promote PTHrP production | – | – |
